Results: paper PMC6429055, “Synthesis, Photochemical and In Vitro Cytotoxic Evaluation of New Iodinated Aminosquaraines as Potential Sensitizers for Photodynamic Therapy” (Molecules, 2019)
Read-outs that look alike come from different tables or passages of the source.

Legend:
[1] = Fluorescence quantum yield; type: physicochemical; settings: In CHCl3
Excerpt: As expected, due to the covalent link between iodine and the aminosquaraine, a strong heavy atom effect can be observed in all cases. This effect is emphasized in the case of the bis(hydroxyethyl)amino substituent group (dye 5c).

[2] = Singlet oxygen formation quantum yield (phosphorescence emission at ~1270 nm vs phenazine standard); type: physicochemical; settings: In CHCl3, excitation 337 nm
Description: The evaluation of the photosensitizing efficiency of the aminosquaraine dyes was performed in chloroform, by determining the singlet oxygen formation quantum yields (ΦΔ). Phenazine was used as standard. The phosphorescence emission of singlet oxygen generated by the sensitizers at approximately 1270 nm is presented in Figure 2 and the determined quantum yields are summarized in Table 1.
These ΦΔ values were obtained by a simple comparison of the integrated areas determined for the standard and samples, using the same OD at the excitation wavelength. For each determination an average of 100 phosphorescence spectra were used. […] As previously reported, the amino group in the squaric ring enhances singlet oxygen generation efficiency when compared with the unsubstituted zwitterionic dye 3. […] This is related with the intramolecular charge transfer (ICT) mechanism which provides a non-radiative deactivation pathway, therefore decreasing the singlet oxygen formation quantum yields ([44] and references therein).
The singlet oxygen measurement set-up was assembled in our laboratory as previously described. As an excitation source we used a nitrogen laser, excitation wavelength = 337 nm. The detector was an InGaAs CCD (model i-Dus from Andor Technology Limited, Belfast, UK) working at low temperature (−60 °C) coupled to a fixed spectrograph, model Shamrock 163i, also from Andor. Phenazine (standard) was used at O.D. = 0.6 in chloroform. The ΦΔ values were obtained by comparing the total area of the emission spectra for the reference and for each dye under study in the same solvent, with the same optical density at the excitation wavelength. […].

[3] = tested on: HepG2 (hepatocellular carcinoma); test: SRB cytotoxicity, dark and after irradiation (photodynamic treatment); type: cell-based; settings: Homo sapiens, mean ± SD
Description: (§1) Stock solutions of the aminosquaraines 5a–e with different concentrations (0.0375 μM, 0.15 μM, 0.6 μM, 6 μM, 12 μM, 25 μM, 50 μM, 500 μM) were prepared using a solution of 3% DMSO in DMEM and kept at−20 °C. Prior to the in vitro assays diluted solutions were prepared with the same solvent to obtain solutions with final concentrations of 0.03 μM, 0.3 μM, 0.6 μM, 1.25 μM, 2.5 μM and 25 μM.
(§2) The cytotoxicity of the squaraine dyes was tested in the dark and under irradiation. For irradiation of the cells a halogen/tungsten lamp (24 V and 250 W, Osram, Carnaxide, Portugal) was used with a fluence rate of […] (measured with an ILT 1400-A radiometer equipped with a SEL033 detector, ILT, Peabody, MA, USA). The cells were irradiated continuously for 30 min. A 3% aqueous solution of K2Cr2O7 was placed between the lamp and the cells as a liquid cut off filter to remove light of wavelength shorter than ~500 nm. The temperature to which the cells were exposed was carefully monitored to guarantee cell viability.
(§3) Four human tumor cell lines were used: MCF-7 (breast adenocarcinoma), NCI-H460 (non-small cell lung carcinoma), HeLa (cervical carcinoma) and HepG2 (hepatocellular carcinoma) from DSMZ (Leibniz-Institut DSMZ-Deutsche Sammlung von Mikroorganismen und Zellkulturen GmbH, Mönchengladbach, Germany). Cells were routinely maintained as adherent cell cultures in RPMI-1640 medium containing 10% heat-inactivated FBS and 2 mM glutamine at […], in a humidified air incubator containing 5% CO2. Each cell line was plated at an appropriate density (7.5 × 10^3 cells/well for MCF-7 and NCI-H460, and 1.0 × 10^4 cells/well for HeLa and HepG2) in 96-well plates, allowed to attach for 24 h and then treated with different concentrations of each squaraine dye. Controls were set with the cells in the absence of the dyes in 3% DMSO in DMEM and in the growth medium only. After the incubation step (24 h), the cells were submitted to the photodynamic treatment for 30 min. Controls in the absence of light were performed on every test. Neither DMSO alone, nor light alone, nor the combination of both induced toxicity on the cells. Then, the growth medium was changed and the cells were incubated for further 24 h. Following this incubation period, the adherent cells were fixed by adding cold 10% TCA (100 µL) and incubated for 60 min at 4 °C. Plates were then washed with deionized water and subsequently dried. SRB solution (0.1% in 1% acetic acid, 100 µL) was then added to each plate well and incubated for 30 min at room temperature. Unbound SRB was removed by washing with 1% acetic acid. Plates were air dried, the bound SRB was solubilized with 10 mM Tris (200 µL) and the absorbance was measured at 540 nm in an ELX800 Microplate Reader (Bio-Tek Instruments Inc., Winooski, VT, USA). The results were expressed in GI50 values, which correspond to the concentration of dye that causes 50% inhibition of cell growth. All the assays were performed in duplicate. Ellipticine was used as standard.

[4] = tested on: MCF-7 (breast adenocarcinoma); test: as above; type: cell-based; settings: Homo sapiens, mean ± SD
Description: as §1, §2, §3

[5] = tested on: NCI-H460 (non-small cell lung carcinoma); test: as above; type: cell-based; settings: Homo sapiens, mean ± SD
Description: as §1, §2, §3

[6] = tested on: HeLa (cervical carcinoma); test: as above; type: cell-based; settings: Homo sapiens, mean ± SD
Description: as §1, §2, §3

[7] = tested on: HeLa, HepG2, MCF-7 and NCI-H460 cell lines; test: SRB growth inhibition across the human tumor cell line panel, dark vs irradiation (text summaries); type: cell-based; settings: for GI50: Homo sapiens; for Difference between growth inhibition percentages upon illumination and in the dark: dye 0.3 μM, range over the cell lines
Description: In this representative example, the growth inhibition in the dark was less than 20% in more than 75% of the assays.
as §1, §2, §3

[8] = SRB cytotoxicity in non-tumor porcine liver primary cell culture, dark and after irradiation; type: cell-based; settings: pig, PLP2 porcine liver primary cell culture (non-tumor), non-tumor cells, mean ± SD
Description: as §1, §2
A cell culture was prepared from a freshly harvested porcine liver obtained from a local slaughter house, and it was designed as PLP2. Briefly, the liver tissues were rinsed in Hank’s balanced salt solution containing 100 U/mL penicillin and 100 µg/mL streptomycin and divided into 1×1 mm^3 explants to ensure that all liver cells were able to access the nutrients provided by the medium. Some of these explants were placed in 25 cm^2 tissue flasks in DMEM medium supplemented with 10% fetal bovine serum, 2 mM non-essential amino acids and 100 U/mL penicillin, […] streptomycin and incubated at 37 °C with a humidified atmosphere containing 5% CO2. The medium was changed every two days. Cultivation of the cells was continued with direct monitoring every two or three days using a phase contrast microscope. Before confluence was reached, cells were subcultured and plated in 96-well plates at a density of 1.0 × 10^4 cells/well, and cultivated in DMEM medium with 10% FBS, 100 U/mL penicillin and 100 µg/mL streptomycin [47]. The PLP2 cells were incubated with the squaraine dyes and submitted to the two independent processes—dark and irradiation—as described earlier for the human tumor cell lines. The SRB assay was performed according to the procedure previously described. The results were expressed in GI50 values. All the assays were performed in duplicate. Ellipticine was used as standard.

[9] = HepG2, light or radiation study, 0.5 h, Irradiated 30 min, halogen/tungsten lamp >500 nm
[10] = MCF7, light or radiation study, 0.5 h, Irradiated 30 min, halogen/tungsten lamp >500 nm
[11] = NCI-H460, light or radiation study, 0.5 h, Irradiated 30 min, halogen/tungsten lamp >500 nm
[12] = light or radiation study, 0.5 h, Irradiated 30 min, halogen/tungsten lamp >500 nm
[13] = light or radiation study, irradiated, range over cell lines, stated jointly for 5a and 5b, read-out: GI50 upon illumination, range over all the cell lines tested

Structure (SMILES)	ΦF (fluorescence quantum yield) [1]	melting point	Φ∆ (singlet oxygen generation quantum yield) [2]	GI50 [3, 9]	GI50 ([3]; HepG2, Dark)	GI50 [4, 10]	GI50 ([4]; MCF7, Dark)	GI50 [5, 11]	GI50 ([5]; NCI-H460, Dark)	GI50 ([6]; Dark)	GI50 [6, 12]	GI50 [7, 13]	Difference between growth inhibition percentages upon illumination and in the dark [7]	GI50 ([8]; Dark)	GI50 ([8]; Irradiated 30 min)	GI50 ([7]; HeLa, dark, inactive within the range of concentrations used, read-out: GI50 in the dark, all cell lines with exception of HeLa)
CCN1C(=CC2=C([O-])C(=Cc3sc4cc(I)ccc4[n+]3CC)C2=O)Sc2cc(I)ccc21 [Dye 3, 4-[(3-Ethyl-6-iodobenzothiazol-3-ium-2-yl)methylidene]-2-[(3-ethyl-6-iodo-3H-benzothiazol-2-ylidene)methyl]-3-oxocyclobut-1-en-1-olate]	0.03	> 300 °C	0.05	–	–	–	–	–	–	–	–	–	–	–	–	–
CCN1C(=CC2=C(N)C(=Cc3sc4cc(I)ccc4[n+]3CC)C2=O)Sc2cc(I)ccc21.[I-] [Dye 5a, 2-[2-Amino-3-(3-ethyl-6-iodo-3H-benzothiazol-2-ylidenemethyl)-4-oxocyclobut-2-enylidenemethyl]-3-ethyl-6-iodobenzothiazol-3-ium iodide]	0.02	> 300 °C	0.22	80 ± 1 nM	20000 ± 2000 nM	10 ± 1 nM	15000 ± 1000 nM	190 ± 20 nM	15300 ± 800 nM	2540 ± 20 nM	4 ± 0.1 nM	4 to 190 nM	46–68%	17500 ± 100 nM	2000 ± 100 nM	–
CCN1C(=CC2=C(NC)C(=Cc3sc4cc(I)ccc4[n+]3CC)C2=O)Sc2cc(I)ccc21.[I-] [Dye 5b, 3-Ethyl-2-[3-(3-ethyl-6-iodo-3H-benzothiazol-2-ylidenemethyl)-2-(methylamino)-4-oxocyclobut-2-enylidenemethyl]-6-iodobenzothiazol-3-ium iodide]	0.03	> 300 °C	0.26	60 ± 1 nM	15000 ± 2000 nM	10 ± 1 nM	10000 ± 700 nM	180 ± 70 nM	8100 ± 900 nM	1200 ± 100 nM	11 ± 10 nM	4 to 190 nM	43–73%	5700 ± 600 nM	30 ± 1 nM	–
CCN1C(=CC2=C(N(CCO)CCO)C(=Cc3sc4cc(I)ccc4[n+]3CC)C2=O)Sc2cc(I)ccc21.[I-] [Dye 5c, 3-Ethyl-2-{3-(3-ethyl-6-iodo-3H-benzothiazol-2-ylidenemethyl)-2-[bis(2-hydroxy-ethyl)amino]-4-oxocyclobut-2-enylidenemethyl}-6-iodobenzothiazol-3-ium iodide]	0.01	> 300 °C	0.09	260 ± 30 nM	23000 ± 2000 nM	420 ± 60 nM	> 25000 nM	980 ± 40 nM	23000 ± 2000 nM	2000 ± 100 nM	310 ± 30 nM	–	–	22000 ± 900 nM	440 ± 10 nM	–
CCN1C(=CC2=C(NCCO)C(=Cc3sc4cc(I)ccc4[n+]3CC)C2=O)Sc2cc(I)ccc21.[I-] [Dye 5d, 3-Ethyl-2-{3-(3-ethyl-6-iodo-3H-benzothiazol-2-ylidenemethyl)-2-[(2-hydroxy-ethyl)amino]-4-oxocyclobut-2-enylidenemethyl}-6-iodobenzothiazol-3-ium iodide]	0.11	> 300 °C	0.19	380 ± 30 nM	> 25000 nM	250 ± 40 nM	> 25000 nM	890 ± 10 nM	> 25000 nM	1800 ± 100 nM	190 ± 10 nM	–	–	> 25000 nM	980 ± 20 nM	> 25000 nM
CCN1C(=CC2=C(N(C)CCO)C(=Cc3sc4cc(I)ccc4[n+]3CC)C2=O)Sc2cc(I)ccc21.[I-] [Dye 5e, 3-Ethyl-2-{3-(3-ethyl-6-iodo-3H-benzothiazol-2-ylidenemethyl)-2-[(2-hydroxy-ethyl)methylamino]-4-oxocyclobut-2-enylidenemethyl}-6-iodobenzothiazol-3-ium iodide]	0.09	> 300 °C	0.16	190 ± 10 nM	11400 ± 900 nM	230 ± 20 nM	9600 ± 200 nM	240 ± 30 nM	13000 ± 1000 nM	2100 ± 200 nM	190 ± 20 nM	–	–	11900 ± 200 nM	420 ± 10 nM	–
